Measured values: patent US9670213B2, “Pteridine ketone derivative and applications thereof as EGFR, BLK, and FLT3 inhibitor” (EAST CHINA UNIVERSITY OF SCIENCE AND TECHNOLOGY, priority 2012, dated 2017)

How the values were obtained:
[1] = molecular target: BLK (Homo sapiens (Human), UniProt P51451); experiment: BLK kinase activity assay (Caliper); type: biochemical; conditions: read-out: Inhibitory activity on kinase (IC50, nM) BLK
Procedure: Preparation of 1× kinase matrix buffer and stop buffer.
Preparation of compound solution. The compound was dissolved in 100% DMSO to a concentration, which was 50 times of the final highest inhibiting-concentration. 100 μL of the compound solution as said above was transferred into wells of 96-well plate. The above compound solution was sequentially diluted to the final desired concentration. In two blank wells of same 96-well plate, 100 μL of 100% DMSO was added as no-compound and no-kinase control, and this plate was used as the original plate.
Preparation of intermediate plate. 10 μL of compound solution was transferred from the original plate to another 96-well plate as the intermediate plate; 90 μL of 1× kinase buffer was added into each well of the intermediate plate, and the intermediate plate was shaken for 10 min.
Preparation of assay plate. 5 μL of solution from each well of intermediate plate was added into a 384-well plate, and repeated controls were set.
Kinase reaction. 2.5× kinase solution and 2.5× peptide solution were prepared. 2.5× kinase solution was transferred into assay plate. Assay plate comprised 5 μL of the compound solution in 10% DMSO. 10 μL of 2.5× kinase solution was added in each well of 384-well assay plate. […] 2.5× peptide solution was added into each well. After incubated at 28° C. for an appropriate time, 25 μL of stop buffer was added to quench the reaction. Experimental data were collected in Caliper. Curve was fitted.

[2] = molecular target: EGFR-L858R/T790M (Homo sapiens (Human), UniProt P00533, L858R/T790M); experiment: In vitro EGFR kinase activity assay (Z'-Lyte); type: biochemical; conditions: read-out: Inhibitory activity on EGFR kinase (IC50, nM) T790M/L858R;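 further: Cell-free kinase reaction with peptide substrate and ATP, 1.5 h at room temperature, development cleaving unphosphorylated peptide, 10-point dilution 0.051–1000 nM, phosphopeptide as 100% phosphorylation control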
EGFR-L858R/T790M, sequence (P00533 25-1210 T790M/L858R): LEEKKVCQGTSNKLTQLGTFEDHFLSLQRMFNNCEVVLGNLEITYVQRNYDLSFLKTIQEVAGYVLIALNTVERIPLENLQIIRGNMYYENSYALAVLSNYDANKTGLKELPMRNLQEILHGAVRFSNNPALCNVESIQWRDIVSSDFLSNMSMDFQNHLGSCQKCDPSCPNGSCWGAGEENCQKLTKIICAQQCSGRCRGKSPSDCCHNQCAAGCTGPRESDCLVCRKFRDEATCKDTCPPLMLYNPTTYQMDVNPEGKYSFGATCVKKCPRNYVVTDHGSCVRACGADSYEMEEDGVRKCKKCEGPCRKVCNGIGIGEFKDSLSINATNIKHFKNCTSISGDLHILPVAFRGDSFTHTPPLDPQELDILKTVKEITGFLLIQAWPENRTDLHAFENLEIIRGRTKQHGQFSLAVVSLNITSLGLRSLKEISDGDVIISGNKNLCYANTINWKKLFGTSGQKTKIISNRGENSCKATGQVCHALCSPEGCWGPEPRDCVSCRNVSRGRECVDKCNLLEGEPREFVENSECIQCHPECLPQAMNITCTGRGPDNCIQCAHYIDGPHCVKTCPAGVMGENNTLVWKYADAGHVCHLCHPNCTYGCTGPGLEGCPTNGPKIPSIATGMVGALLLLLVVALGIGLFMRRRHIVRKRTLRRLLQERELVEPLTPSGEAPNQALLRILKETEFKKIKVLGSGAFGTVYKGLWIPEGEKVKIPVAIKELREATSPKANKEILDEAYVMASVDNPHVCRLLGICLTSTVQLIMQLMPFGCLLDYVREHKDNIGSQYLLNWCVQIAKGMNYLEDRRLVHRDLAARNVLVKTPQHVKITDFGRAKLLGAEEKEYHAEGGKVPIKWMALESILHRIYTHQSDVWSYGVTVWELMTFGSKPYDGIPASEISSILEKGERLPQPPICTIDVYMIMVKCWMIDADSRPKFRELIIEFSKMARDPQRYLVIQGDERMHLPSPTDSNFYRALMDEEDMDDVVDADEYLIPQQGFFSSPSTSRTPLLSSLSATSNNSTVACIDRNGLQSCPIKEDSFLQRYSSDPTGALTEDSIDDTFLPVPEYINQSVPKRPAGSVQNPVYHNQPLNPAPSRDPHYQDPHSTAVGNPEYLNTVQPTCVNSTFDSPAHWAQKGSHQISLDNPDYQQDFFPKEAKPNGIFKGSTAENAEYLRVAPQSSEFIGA
Procedure: Inhibitory effects in vitro of the compounds provided in the present invention on EGFR kinase activity was tested as follows:
10 concentration gradients, from 5.1×10^−11 mol/L to 1.0×10^−6 mol/L, were set for all of the compounds to be tested.
10 μL of kinase reaction system comprised 2.5 μL of compound solution, 5 μL of Kinase/peptide mixture, and 2.5 μL of ATP solution. 5 μL of phosphopeptide solution was used in place of kinase/peptide mixture as 100% phosphorylation control. […] After thoroughly mixing the solution within the plate, the plate was incubated at room temperature for 1.5 hours. 5 μL of DevelopmentSolution was added into each well, and then the plate was incubated at room temperature for another 1 hour, and non-phosphorylated peptide was cleaved within this period. Finally, the reaction was quenched by adding 5 μL of Stop Reagent. The Plate was measured with EnVision Multilabel Reader (Perkin Elmer). Experimental data were calculated by using GraphPad Prism version 4.0. Each experiment was repeated more than three times.

BLK, sequence (P51451 whole entry): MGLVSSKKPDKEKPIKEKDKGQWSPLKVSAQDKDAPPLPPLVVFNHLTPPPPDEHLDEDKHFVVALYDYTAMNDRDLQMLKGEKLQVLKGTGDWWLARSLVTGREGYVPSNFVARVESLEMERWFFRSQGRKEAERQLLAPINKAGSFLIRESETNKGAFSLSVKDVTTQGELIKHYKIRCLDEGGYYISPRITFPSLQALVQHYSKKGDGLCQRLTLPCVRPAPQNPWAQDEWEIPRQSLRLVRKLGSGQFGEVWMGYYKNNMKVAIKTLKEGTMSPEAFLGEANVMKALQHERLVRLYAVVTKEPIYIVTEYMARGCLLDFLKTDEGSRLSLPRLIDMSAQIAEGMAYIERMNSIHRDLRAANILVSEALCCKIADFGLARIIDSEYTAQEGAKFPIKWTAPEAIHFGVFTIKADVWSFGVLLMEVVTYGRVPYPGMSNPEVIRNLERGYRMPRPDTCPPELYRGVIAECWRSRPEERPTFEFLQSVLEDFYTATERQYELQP

Row | IC50 [1] [nM] | IC50 [2] [nM] | Structure (SMILES)
1 | < 14 | 0.824 | C=CC(=O)Nc1cccc(-n2c(=O)cnc3cnc(Nc4ccc(N5CCN(C)CC5)cc4)nc32)c1 [Compound 020, N-(3-(2-(4-(4-methyl-1-piperazinyl)-phenylamino)-7-oxo-8(7H)-pteridin-yl)phenyl) acrylamide]
2 | 463 | 1.17 | C=CC(=O)Nc1cccc(-n2c(=O)cnc3cnc(Nc4ccc(N5CCN(C)CC5)cc4OC)nc32)c1 [Compound 032, N-(3-(2-(2-methoxy-4-(4-methyl-1-piperazinyl)-phenylamino)-7-oxo-8(7H)-pteridin-yl)phenyl)acrylamide]
